Results from US7767854B2, “N-substituted phenylacetamide derivative and pharmaceutical composition containing the same” (Dainippon Sumitomo Pharma Co., Ltd., priority 2005, dated 2010).
“Also recorded” adds a separate entry of the source.

How the values were obtained:
[1] = Analgesic effect of prior-art compounds (background statement)
[2] = tested on: Slc: Hartley male guinea-pigs; test: Skin sensitization test (Adjuvant and Patch Test, allergenic potency); format: in vivo, guinea-pig; settings: 1% solution patches, FCA pre-treatment, observed 24 and 48 hours after initiation
Protocol: Experiment 3. Skin Sensitization Test (Evaluation of Allergenic Potency)
The purpose of the present experiment is to investigate if each administered compound of the invention may induce allergic contact dermatitis. In detail, the test was carried out using Freund's complete adjuvant (FCA) according to the Adjuvant and Patch Test [Sato, et al., Contact Dermatitis, 7, 225-237 (1981)], which is described in “Description of Guideline on Nonclinical Studies of Drugs (Iyakuhin Hirinshou-shiken Guideline Kaisetsu), Chapter 8, P.72-76, Skin sensitization test” [edited by the Ministry of Health and Welfare, Pharmaceutical Affairs Bureau, Yakuji-Nippou-sha (1997)]. Slc: Hartley male guinea-pigs were used for the test. As a test compound, each the compound of the invention and DNCB (1-chloro-2,4-dinitrobenzene) as a positive control drug were dissolved in 70% ethanol/water solution and were administered to the animals. The 70% ethanol/water solution was used as vehicle solvent (reference).
In detail, after FCA emulsion was intradermally administered around the shaved back part of the guinea-pig as a pre-treatment, each patch containing 1% test compound solution or reference (solvent) solution was closedly attached once a day for consecutive 3 days in total (Primary Sensitization). On 7th day after the Primary Sensitization, 10% sodium lauryl sulfate ointment was openly applied at the same part for 24 hours, and then each patch containing 1% test compound solution or reference (solvent) solution was closedly attached again for 48 hours (Second Sensitization). 14 days after the Second Sensitization treatment, each test compound (maximum concentration: 1%) was applied for 24 hours using patch in the same manner (initiation). 24 and 48 hours after the application, the reaction (erythema, edema) on the applied skin part was observed and was scored (0-3) based on the criteria of Magnusson and Kligman [J. Invest. Dermatol., 52, 268-276 (1969)], and then the degree of skin sensitization induced by each of compound was evaluated.

[3] = tested on: male Std: Wistar rats; test: Pain test by plantar thermal stimuli (plantar test); format: in vivo; settings: Rattus norvegicus, 4 h, 50 μl of 0.03% (W/V) solution i.pl. into right hind-paw; 4 hours after administration; cut-off 25 seconds; read-out: % MPE (percent maximum possible effect, withdrawal latency)
Protocol: Experiment 1: Pain Test by Plantar Thermal Stimuli (Plantar Test)
In the present experiment, the analgesic effect of the compounds of the invention was evaluated by the measurements of withdrawal latency to noxious thermal stimuli, according to the methods of Hargreaves, et al., [Pain, 32, 77-88 (1988)] and Field, et al., [J. Pharmacol. Exp. Ther., 282, 1242-1246 (1997)].
In detail, the experiment was carried out using male Std: Wistar rats (4 rats/group; body weight, 170-220 g) and a plantar test device (Model 7370, Ugo Basile) with infrared beam as a heat source. The rat was put into an experimental cage that is an acrylic box whose bottom is made of glass and was habituated therein. Then, the infrared beam was radiated to the plantar surface of right hind-paw thereof through the floor glass, and the withdrawal latency was measured every 5 minutes, 3 times. The intension of the infrared beam was adjusted so that the pre-drug administration latency was about 10 seconds. The cut-off time was set at 25 seconds in order to prevent a paw burn. The average of the latencies was calculated, and then it was defined as the value of the pre-drug administration latency of the test compound.
Next day, 50 μl of each solution of the test compounds [the compounds of the invention, the compounds of the comparative Examples and capsaicin (Sigma, U.S.A.)] or 50 μl of vehicle solvent (reference) was given to a right hind-paw of the rat by intraplantar injection (i. pl.) using a micro-syringe. The test compound was dissolved in a saline solution containing 10% Tween 80 (Sigma, U.S.A) and 10% ethanol to give a 0.03% (W/V) solution. The saline solution containing 10% Tween 80 and 10% ethanol was used as reference. Four hours after i.pl. administration of each the test compound or the reference to the rats, the experiment mentioned above was carried out, and then the post-drug administration latency was measured. The analgesic effects thereof were calculated with the following formula, which was known as a percent maximum possible effect (% MPE). % MPE=[(the value of post-drug latency−the value of pre-drug latency)/(25*−the value of pre-drug latency)]×100 *: cut-off time

[4] = tested on: male Std:ddY mice; test: Study for irritancy (eye-wiping test); format: in vivo, mouse
Protocol: Experiment 2: Study for Irritancy (Eye-Wiping Test)
In this experiment, we examined the irritancy of the compounds of the invention. The experiment was carried out according to Jancso, et al., [Acta. Physiol. Acad. Sci. Hung., 19, 113-131 (1961)] and Szallasi, et al., [Brit. J. Pharmacol., 119, 283-290 (1996)]. In more detail, the compounds of the invention were dissolved in a physiological saline solution containing 5% Tween 80 and 5% ethanol to prepare each 2 different concentrations (2 concentrations: 10 and 30 μg/ml). One drop of each the solution was dropped into an eye of male Std:ddY mice (5 […]/group; body weight, 20-30 g). The protective wiping behaviors with its front paws were counted for every one minute from 0 to 5 minutes after the administration. Then, the average counts in each one minute were calculated, and the maximum value among the averages was defined as the representative value. Using the saline solution containing […] and 5% ethanol as a vehicle solvent, the test mentioned above was also carried out.

[5] = tested on: female CBA/JN mice; test: Skin sensitization test (Local Lymph Node Assay with BrdU); format: in vivo, mouse; settings: 1 and 3% solutions in DMF on both auricles, 3 days
Protocol: Experiment 4: Skin Sensitization Test (Local Lymph Node Assay)
The purpose of the present experiment is to investigate if each administered compound of the invention can induce allergic contact dermatitis. In detail, the skin sensitization effect of the compounds of the invention was examined using BrdU (bromodeoxyuridine) by LLNA (Local Lymph Node Assay).
In more detail, the test was carried out according to the method by Suda, A. et al. (Local lymph node assay with non-radioisotope alternative endpoints. J. Toxicol. Sci., 27(3):205-218, 2002). Namely, the compounds of the invention were dissolved in DMF (N,N-dimethylformamide) to prepare 1 and 3% solutions, which were applied to both auricles of female CBA/JN mice aged 9 weeks for consecutive 3 days (1st day to 3rd day)(25 μl/one-side ear, once a day)
As positive control drugs, DNCB (dinitrochlorobenzene, a potently sensitizing drug) and HCA (α-hexylcinnamaldehyde, a weakly sensitizing drug) were used. After the final application was finished (on 3rd day), ALZET Osmotic Pump containing 100 μl of 200 mg/mL BrdU (releasing rate: 0.5 μl/hour) was implanted into the ventral skin under pentobarbital anesthesia, and BrdU was exposed sustainedly. On 9th day from starting day to apply the compounds of the invention, the animals were euthanized by cervical dislocation, and parotid lymph nodes of both their ears were taken out. The nodes were weighed and homogenized in PBS to prepare a single cell suspension which was measured by a blood test device: ADVIA (Bayer) to count the number of the cells. Next, the cells were immunofluorescently stained with FITC-labeled anti-BrdU antibody using a BrdU Flow Kit (BD Biosciences), which were measured and analyzed using a flow cytometer: FACS Calibur (Becton Dickinson) to give BrdU-positive cell percentage. And then, the BrdU-positive cell percentage was multiplied by the number of the node cells to give the number of the BrdU-positive cells. Additionally, on each parameter, the average value for the test compound group was divided by the average value for the reference (solvent) group to give a stimulation Index (SI). We judged that the compound had skin sensitization activity when the SI of BrdU-positive cell number was 2 or more, in principle.

[6] = cited from earlier work

COc1cc(CC(=O)NC2CCC(C)CC2)ccc1O (stereo not drawn)
analgesic effect [1]: little analgesic effect

CCCCC1=CCC(NC(=O)Cc2ccc(O)c(OC)c2)CC1 (single isomer, unassigned; (+)) [Example 43, (+)-N-(4-butyl-3-cyclohexenyl)-2-(4-hydroxy-3-methoxyphenyl)acetamide]
skin sensitization (erythema, edema score) [2]: no skin sensitization

CCCC=C1CCC(NC(=O)Cc2ccc(O)c(OC)c2)CC1 (single isomer, unassigned; (+)) [Example 45, (+)-N-(4-butylidenecyclohexyl)-2-(4-hydroxy-3-methoxyphenyl)acetamide]
change in vivo at 300 µg/mL [3]: 73.9% | skin sensitization (erythema, edema score) [2]: no skin sensitization

CCCCC1=CCC(NC(=O)Cc2ccc(O)c(OC)c2)CC1 (single isomer, unassigned; (-)) [Example 44, (−)-N-(4-butyl-3-cyclohexenyl)-2-(4-hydroxy-3-methoxyphenyl)acetamide]
skin sensitization (erythema, edema score) [2]: no skin sensitization

CCCC=C1CCC(NC(=O)Cc2ccc(O)c(OC)c2)CC1 (single isomer, unassigned; (-)) [Example 46, (−)-N-(4-butylidenecyclohexyl)-2-(4-hydroxy-3-methoxyphenyl)acetamide]
skin sensitization (erythema, edema score) [2]: no skin sensitization

COc1cc(CNC(=O)CCCC/C=C/C(C)C)ccc1O [Capsaicin, (E)-8-methyl-N-vanillyl-6-nonenamide]
change in vivo at 300 µg/mL [3]: 39.2% | Representative value of counts of protective wiping behaviors (max. counts, counts/min) ([4]; 10 μg/ml, one drop into eye, 0 to 5 minutes): 20.0 counts/min | irritancy (protective wiping behaviors, in words) ([4]; capsaicin 10 μg/ml, Example compounds up to 30 μg/ml): frequent protective wiping behaviors

CCCCC1=CCC(NC(=O)Cc2ccc(O)c(OC)c2)CC1 (stereo not drawn) [Example 1, N-(4-butyl-3-cyclohexenyl)-2-(4-hydroxy-3-methoxyphenyl)acetamide]
change in vivo at 300 µg/mL [3]: 69.9% | skin sensitization (erythema, edema score) [2]: no skin sensitization | skin sensitization (SI of BrdU-positive cell number) [5]: weak skin sensitization

CCCCC1CCC(NC(=O)Cc2ccc(O)c(OC)c2)CC1 (stereo not drawn) [Example 2, N-(4-butylcyclohexyl)-2-(4-hydroxy-3-methoxyphenyl)acetamide]
change in vivo at 300 µg/mL [3]: 81.4% | skin sensitization (erythema, edema score) [2]: no skin sensitization | skin sensitization (SI of BrdU-positive cell number) [5]: weak skin sensitization

CC/C=C\[C@H]1CC[C@H](NC(=O)Cc2ccc(O)c(OC)c2)CC1 [Example 16]
change in vivo at 300 µg/mL [3]: 94.1% | skin sensitization (erythema, edema score) [2]: no skin sensitization | skin sensitization (SI of BrdU-positive cell number) [5]: weak skin sensitization

C/C=C\[C@H]1CC[C@H](NC(=O)Cc2ccc(O)c(OC)c2)CC1 [Example 22]
change in vivo at 300 µg/mL [3]: 54.7% | skin sensitization (erythema, edema score) [2]: no skin sensitization | skin sensitization (SI of BrdU-positive cell number) [5]: weak skin sensitization

COc1cc(CC(=O)N[C@H]2CC[C@H](CCCC(C)C)CC2)ccc1O [Example 27]
change in vivo at 300 µg/mL [3]: 89.5% | skin sensitization (erythema, edema score) [2]: no skin sensitization | skin sensitization (SI of BrdU-positive cell number) [5]: weak skin sensitization

COc1cc(CC(=O)NC2CCCCC2)ccc1O [drawing 3]
analgesic effect [1]: little analgesic effect | irritancy ([6]; Arzneim.-Forsch., 25, 1877 (1975)): a little lower irritancy than capsaicin | stimulatory effect and desensitization ([6]; Arzneim.-Forsch., 26, 33 (1976)): strong stimulatory; also recorded: weak desensitization
